Laboratory results as given in patent US11738096B2, “Method of detecting diseased or damaged tissue with a pH-triggered polypeptide fluorophore composition” (University of Rhode Island Board of Trustees, priority 2016, dated 2023).
Where a SMILES comes first, the peptide text is derived from it. Where no end group is shown, it is not given here. The star is where a group is joined. X2 = CC1(C)C(/C=C/C2=C(Oc3ccc(S(=O)(=O)O)cc3)C(=C/C=C3/N(CCCCCC(=O)NCCN4C(=O)CC(*)C4=O)c4ccc(S(=O)(=O)O)cc4C3(C)C)/CCC2)=[N+](CCCCS(=O)(=O)O)c2ccc(S(=O)(=O)[O-])cc21; X1 = CC1(C)C(/C=C/C=C/C=C/C=C2/N(CCCCCC(=O)NCCN3C(=O)CC(*)C3=O)c3ccc4ccccc4c3C2(C)C)=[N+](CCCCS(=O)(=O)[O-])c2ccc3ccccc3c21; ICG maleimide = indocyanine green maleimide

Tests used:
[1] = test system: 4T1 murine mammary carcinoma; experiment: Tumor targeting in mice bearing 4T1 tumors; type: in vivo, mouse; settings: 20 μM, IV, 16 h
Method: Adult female nude mice and female BALB/cAnNHsd mice (Envigo), 20-25 g in body mass were used in the study. Mouse mammary cancer 4T1 cells were subcutaneously implanted in the right flank (8×10^5 cells/0.1 mL/flank) of adult female BALB/cAnNHsd mice. Rat bladder cancer AY27 cells were subcutaneously implanted in the right flank (8×10^5 cells/0.1 mL/flank) of adult female nude mice. When tumors reached approximately 5-6 mm in diameter, single tail vein injection or single intraperitoneal injection of fluorophore-pHLIP® solutions in PBS were performed. Fluorescent constructs were used in amounts of 100 μL of 40 μM, or 100 μL of 20 μM, or 100 μL of 10 μM, or 100 μL of 5 μM. Imaging of mouse was performed at 16 hours after constructs administration. Skin was removed from the tumor site just before imaging while animal was under gas anesthesia, and mice were euthanized immediately after imaging. Tumor, kidney and liver were harvested, imaged and used for histopathological analysis. Imaging was performed using Stryker clinical imaging instrument. Autofluorescence was established by imaging mouse with no injection of fluorescent constructs (the level of autofluorescence signal was insignificant compared to the signal after the constructs administration).

[2] = residue X in AcWL-X-LL, relative to virtual glycine; cited from earlier work
[3] = NIR fluorescence imaging of blood vessels and blood flow (ear, leg, blood samples) in mice; type: in vivo, mouse; settings: for fluorescent signal in blood samples: blood collected 5-120 min after IV injection; for imaging of blood vessels in ear and leg: IV 100 μL of 40 μM, 5, 30, 60, 90, 120 min
Method: Adult female nude mice (Envigo), 20 g in body mass were used in the study. Fluorescent constructs were given as a single tail vein injection in amounts of 100 μL of 40 μM in PBS. Imaging of mouse ear and leg was performed at 5, 30, 60, 90 and 120 min after construct administration. At 5, 30, 60, 90 and 120 min after construct administration 5 μL of blood was withdrawn from tail (and mixed with 5 μL of anticoagulating solution to preserve blood) while animal was under anesthesia. Mice were euthanized immediately after last imaging point (120 min). Blood collected from all animals was deposited on the glass slide, dried and imaged. Imaging was performed using Novadaq clinical imaging instrument. Autofluorescence was established by imaging mouse with no injection of fluorescent constructs (the level of autofluorescence signal was insignificant compared to the signal after the constructs administration).

[4] = free ICG as used now; cited from earlier work
[5] = cited from earlier work
[6] = humans, high dose of 5 mg/kg of body weight; cited from earlier work
[7] = cited from earlier work; remark: listed apart in the source

Compound | ΔGX^cor, solvation free energy of the side chain [2] | further results
CC(C)C[C@H](NC(=O)[C@H](Cc1ccc(O)cc1)NC(=O)[C@H](C)NC(=O)[C@H](CCCNC(=N)N)NC(=O)[C@H](Cc1c[nH]c2ccccc12)NC(=O)[C@@H]1CCCN1C(=O)[C@H](CC(N)=O)NC(=O)[C@H](CCC(N)=O)NC(=O)[C@H](CC(=O)O)NC(=O)[C@H](CC(=O)O)NC(=O)[C@H](CSC1CC(=O)N(CCNC(=O)CCCCCN2/C(=C/C=C3\CCCC(/C=C/C4=[N+](CCCCS(=O)(=O)O)c5ccc(S(=O)(=O)[O-])cc5C4(C)C)=C3Oc3ccc(S(=O)(=O)O)cc3)C(C)(C)c3cc(S(=O)(=O)O)ccc32)C1=O)NC(=O)[C@H](C)N)C(=O)N[C@@H](CC(=O)O)C(=O)N[C@@H](CC(C)C)C(=O)N[C@@H](CC(C)C)C(=O)N[C@@H](Cc1ccccc1)C(=O)N1CCC[C@H]1C(=O)N[C@H](C(=O)N[C@@H](CC(=O)O)C(=O)N[C@H](C(=O)N[C@@H](CC(C)C)C(=O)N[C@@H](CC(C)C)C(=O)N[C@@H](CC(C)C)C(=O)N[C@@H](CC(=O)O)C(=O)N[C@@H](CC(C)C)C(=O)N[C@@H](CC(C)C)C(=O)N[C@@H](Cc1c[nH]c2ccccc12)C(=O)N[C@@H](C)C(=O)O)[C@@H](C)O)[C@@H](C)O (some centres unmarked) [IR800-Var3] (H-AC(X2)DDQNPWRAYLDLLFPTDTLLLDLLWA-OH) |  | organ of clearance [1]: cleared by the kidney
CC(C)[C@H](N)C(=O)O [Val, Valine] | +1.61 kcal/mol | 
CC[C@H](C)[C@H](NC(=O)[C@@H]1CCCN1C(=O)[C@H](CC(N)=O)NC(=O)[C@H](CCC(N)=O)NC(=O)[C@H](CCC(=O)O)NC(=O)[C@H](CSC1CC(=O)N(CCNC(=O)CCCCCN2/C(=C/C=C/C=C/C=C/C3=[N+](CCCCS(=O)(=O)[O-])c4ccc5ccccc5c4C3(C)C)C(C)(C)c3c2ccc2ccccc32)C1=O)NC(=O)[C@H](C)N)C(=O)N[C@@H](Cc1ccc(O)cc1)C(=O)N[C@@H](Cc1c[nH]c2ccccc12)C(=O)N[C@@H](C)C(=O)N[C@@H](CCCNC(=N)N)C(=O)N[C@@H](Cc1ccc(O)cc1)C(=O)N[C@@H](C)C(=O)N[C@@H](CC(=O)O)C(=O)N[C@@H](Cc1c[nH]c2ccccc12)C(=O)N[C@@H](CC(C)C)C(=O)N[C@@H](Cc1ccccc1)C(=O)N[C@H](C(=O)N[C@H](C(=O)N1CCC[C@H]1C(=O)N[C@@H](CC(C)C)C(=O)N[C@@H](CC(C)C)C(=O)N[C@@H](CC(C)C)C(=O)N[C@@H](CC(C)C)C(=O)N[C@@H](CC(=O)O)C(=O)N[C@@H](CC(C)C)C(=O)N[C@@H](C)C(=O)N[C@@H](CC(C)C)C(=O)N[C@@H](CC(C)C)C(=O)N[C@H](C(=O)N[C@@H](CC(=O)O)C(=O)N[C@@H](C)C(=O)N[C@@H](CC(=O)O)C(=O)N[C@@H](CCC(=O)O)C(=O)NCC(=O)N[C@H](C(=O)O)[C@@H](C)O)C(C)C)[C@@H](C)O)[C@@H](C)O (some centres unmarked) [ICG-WT pHLIP®] |  | fluorescent signal in blood samples [3]: persistence of strong fluorescent signal within 2 hours
N[C@@H](Cc1c[nH]cn1)C(=O)O [His, Histidine] | -1.18 kcal/mol | 
CC[C@H](C)[C@H](NC(=O)[C@@H]1CCCN1C(=O)[C@H](CC(N)=O)NC(=O)[C@H](CCC(N)=O)NC(=O)[C@H](CCC(=O)O)NC(=O)[C@H](CSC1CC(=O)N(CCNC(=O)CCCCCN2/C(=C/C=C/C=C/C=C/C3=[N+](CCCCS(=O)(=O)[O-])c4ccc5ccccc5c4C3(C)C)C(C)(C)c3c2ccc2ccccc32)C1=O)NC(=O)[C@H](C)N)C(=O)N[C@@H](Cc1ccc(O)cc1)C(=O)N[C@@H](Cc1c[nH]c2ccccc12)C(=O)N[C@@H](C)C(=O)N[C@@H](CCCNC(=N)N)C(=O)N[C@@H](Cc1ccc(O)cc1)C(=O)N[C@@H](C)C(=O)N[C@@H](CC(N)=O)C(=O)N[C@@H](Cc1c[nH]c2ccccc12)C(=O)N[C@@H](CC(C)C)C(=O)N[C@@H](Cc1ccccc1)C(=O)N[C@H](C(=O)N[C@H](C(=O)N1CCC[C@H]1C(=O)N[C@@H](CC(C)C)C(=O)N[C@@H](CC(C)C)C(=O)N[C@@H](CC(C)C)C(=O)N[C@@H](CC(C)C)C(=O)N[C@@H](CC(N)=O)C(=O)N[C@@H](CC(C)C)C(=O)N[C@@H](C)C(=O)N[C@@H](CC(C)C)C(=O)N[C@@H](CC(C)C)C(=O)N[C@H](C(=O)N[C@@H](CC(=O)O)C(=O)N[C@@H](C)C(=O)N[C@@H](CC(=O)O)C(=O)N[C@@H](CCC(=O)O)C(=O)NCC(=O)N[C@H](C(=O)O)[C@@H](C)O)C(C)C)[C@@H](C)O)[C@@H](C)O (some centres unmarked) [ICG-NpHLIP®] (H-AC(X1)EQNPIYWARYANWLFTTPLLLLNLALLVDADEGT-OH) |  | fluorescent signal in blood samples [3]: significantly reduced signal
C[C@H](N)C(=O)O [Ala, Alanine] | +0.65 kcal/mol | 
N[C@@H](Cc1ccc(O)cc1)C(=O)O [Tyr, Tyrosine] | +1.86 kcal/mol | 
CSCC[C@H](N)C(=O)O [Met, Methionine] | +1.82 kcal/mol | 
ICG-Hum pHLIP®: ICG maleimide conjugated to Cys of Hum pHLIP® GCDNNEGFFATLGGEIPLWSDVVLAIEG (SEQ ID NO: 446) (GC(ICG maleimide)DNNEGFFATLGGEIPLWSDVVLAIEG) |  | imaging of blood vessels in ear and leg [3]: slow in reaching the best imagibility condition and was fast in decaying
N=C(N)NCCC[C@H](N)C(=O)O [Arg, Arginine] | -0.66 kcal/mol | 
N[C@@H](CO)C(=O)O [Ser, Serine] | +0.69 kcal/mol | 
IR800-WT: IR800 maleimide conjugated to Cys of WT pHLIP® peptide (SEQ ID NO: 444) (AC(IR800 maleimide)EQNPIYWARYADWLFTTPLLLLDLALLVDADEGT) |  | imaging of blood vessels in ear and leg [3]: better in imaging of blood vessels, however not nearly as good as ICG-WT and ICG-Var3 pHLIP®s
NC(=O)C[C@H](N)C(=O)O [Asn, Asparagine] | +0.30 kcal/mol | 
O=C(O)[C@@H]1CCCN1 [Pro, Proline] | +1.01 kcal/mol | 
N[C@@H](CCC(=O)O)C(=O)O [Glu, Glutamic acid] | -2.48 kcal/mol | 
CC1(C)C(/C=C/C=C/C=C/C=C2\N(CCCCS(=O)(=O)[O-])c3ccc4ccccc4c3C2(C)C)=[N+](CCCCS(=O)(=O)[O-])c2ccc3ccccc3c21.[Na+] [ICG, indocyanine green] |  | imaging time [4]: 2 to 5 min; time of appearance unconjugated in the bile ([5]; after intravenous injection): about 8 min; half-life time ([5]; following intravenous injection): 2.5 min; time to reach the nearest draining lymph node ([5]; injected outside blood vessels): ≤ 15 min; toxic effects [6]: No significant toxic effects
NCCCC[C@H](N)C(=O)O [Lys, Lysine] | -1.65 kcal/mol | 
N[C@@H](CC(=O)O)C(=O)O [Asp, Aspartic acid] | -2.49 kcal/mol | 
N[C@@H](Cc1c[nH]c2ccccc12)C(=O)O [Trp, Tryptophan] | +3.24 kcal/mol | 
C#CCNC(=O)CCCCC[N+]1=C(/C=C/C=C/C=C/C=C2\N(CCCCS(=O)(=O)[O-])c3ccc4ccccc4c3C2(C)C)C(C)(C)c2c1ccc1ccccc21 [ICG-alkyne] |  | Solubility [7]: DMSO, DMF, Acetonitrile, Methanol
N[C@@H](Cc1ccccc1)C(=O)O [Phe, Phenylalanine] | +2.86 kcal/mol | 
C[C@@H](O)[C@H](N)C(=O)O [Thr, Threonine] | +0.90 kcal/mol | 
